Four compounds from patent publication US11179383B2 (Gilead Sciences, Inc., priority 2018, dated 2021) can be followed below.

For the assay, the target named is T1, α4β7 integrin (Homo sapiens, UniProt P13612+P26010).
T1 construct: monitoring the capture of α4β7 integrin expressing cells on a recombinant MadCAM-1 extracellular domain-coated plate; endogenous in cells; host or cells: RPMI8866 cells
T1 sequence (P13612 34-1032): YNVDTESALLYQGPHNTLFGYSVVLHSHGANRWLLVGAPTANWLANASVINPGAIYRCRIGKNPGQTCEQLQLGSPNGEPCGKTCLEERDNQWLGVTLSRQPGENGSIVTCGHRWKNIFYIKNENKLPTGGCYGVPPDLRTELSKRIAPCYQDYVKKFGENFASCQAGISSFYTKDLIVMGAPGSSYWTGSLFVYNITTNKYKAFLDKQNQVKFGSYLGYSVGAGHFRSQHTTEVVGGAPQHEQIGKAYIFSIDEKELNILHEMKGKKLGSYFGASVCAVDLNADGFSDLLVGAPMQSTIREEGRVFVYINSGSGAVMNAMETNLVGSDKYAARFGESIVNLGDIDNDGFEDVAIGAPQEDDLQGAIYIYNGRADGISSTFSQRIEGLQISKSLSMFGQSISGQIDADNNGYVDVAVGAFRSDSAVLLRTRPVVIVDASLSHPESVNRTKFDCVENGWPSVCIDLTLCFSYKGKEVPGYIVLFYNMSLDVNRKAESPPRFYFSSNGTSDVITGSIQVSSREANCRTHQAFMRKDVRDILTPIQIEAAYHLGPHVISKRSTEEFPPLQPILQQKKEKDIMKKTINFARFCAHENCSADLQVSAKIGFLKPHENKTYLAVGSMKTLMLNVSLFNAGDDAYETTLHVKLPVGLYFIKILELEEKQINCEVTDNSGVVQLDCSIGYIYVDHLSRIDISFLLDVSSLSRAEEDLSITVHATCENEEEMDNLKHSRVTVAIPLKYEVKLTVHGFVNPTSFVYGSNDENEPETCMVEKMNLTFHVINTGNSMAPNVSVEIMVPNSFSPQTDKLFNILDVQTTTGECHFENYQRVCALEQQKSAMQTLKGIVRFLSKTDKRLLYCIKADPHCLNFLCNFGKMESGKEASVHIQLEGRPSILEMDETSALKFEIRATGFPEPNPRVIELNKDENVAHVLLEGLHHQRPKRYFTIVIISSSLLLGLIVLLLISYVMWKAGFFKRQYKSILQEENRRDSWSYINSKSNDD
T1 sequence (P26010 20-798): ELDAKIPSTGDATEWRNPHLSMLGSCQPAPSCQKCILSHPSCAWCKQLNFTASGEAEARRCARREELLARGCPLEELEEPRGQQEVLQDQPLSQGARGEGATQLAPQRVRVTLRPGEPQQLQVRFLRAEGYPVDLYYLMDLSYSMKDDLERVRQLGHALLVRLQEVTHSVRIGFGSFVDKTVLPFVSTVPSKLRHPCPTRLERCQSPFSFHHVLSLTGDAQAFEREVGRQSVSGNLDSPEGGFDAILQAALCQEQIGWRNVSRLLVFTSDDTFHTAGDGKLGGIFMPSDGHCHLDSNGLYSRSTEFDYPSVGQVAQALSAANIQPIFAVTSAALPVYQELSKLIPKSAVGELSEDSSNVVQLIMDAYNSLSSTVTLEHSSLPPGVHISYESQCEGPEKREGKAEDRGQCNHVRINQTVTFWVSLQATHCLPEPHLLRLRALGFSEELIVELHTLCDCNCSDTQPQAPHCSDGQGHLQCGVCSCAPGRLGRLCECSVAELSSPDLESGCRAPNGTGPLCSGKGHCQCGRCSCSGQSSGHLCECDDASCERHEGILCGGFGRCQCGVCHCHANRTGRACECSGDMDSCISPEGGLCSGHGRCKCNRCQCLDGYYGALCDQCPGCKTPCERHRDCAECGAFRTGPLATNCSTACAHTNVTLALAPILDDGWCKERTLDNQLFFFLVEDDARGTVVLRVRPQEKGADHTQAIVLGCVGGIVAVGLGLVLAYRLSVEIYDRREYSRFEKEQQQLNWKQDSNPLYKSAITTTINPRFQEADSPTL
The assay can be described thus: α4β7 Integrin Cell Capture Assay. Type of assay: cell-based. Conditions: capture of α4β7 integrin expressing RPMI8866 cells on recombinant MadCAM-1 extracellular domain-coated plate; DMEM+0.5% FBS+0.5 mM MnCl2; read-out: EC50 α4β7. In a few lines: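 RPMI8866 cells in DMEM + 0.5% FBS + 0.5 mM MnCl2 preincubated with compound 1 h at 37 °C, then allowed to bind 30 min at 37 °C to plates coated with MAdCAM-1 extracellular domain (1.0 μg/mL). Cells fixed with glutaraldehyde, Hoechst-stained, imaged and bound cells counted; EC50 from cell count versus concentration.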

`O=C(N[C@@H](Cc1ccc(-c2c(Cl)cc(F)cc2Cl)c2c1C=CCO2)C(=O)O)c1c(Cl)cccc1Cl` [Example 169, (S)-3-(8-(2,6-dichloro-4-fluorophenyl)-2H-chromen-5-yl)-2-(2,6-dichlorobenzamido)propanoic acid]: the concentration giving a half-maximal response (EC50) – broadly, the concentration needed to bring the measured effect to its halfway point – amounted to 142 nM. `CC1(C)C=Cc2c(C[C@H](NC(=O)c3c(Cl)cccc3Cl)C(=O)O)ccc(-c3c(Cl)cc(F)cc3Cl)c2O1` [Example 170, (S)-3-(8-(2,6-dichloro-4-fluorophenyl)-2,2-dimethyl-2H-chromen-5-yl)-2-(2,6-dichlorobenzamido)propanoic acid]: the EC50 worked out at 206 nM. Under `Cc1nc(-c2ccc(C[C@H](NC(=O)c3c(F)cc(N4CCOC[C@@H]4C(F)(F)F)cc3F)C(=O)O)c3ccccc23)c(=O)n(C)c1C` [Example 177] stands 0.22 nM. `Cc1cc(N2CCOC[C@@H]2C(F)(F)F)cc(F)c1C(=O)N[C@@H](Cc1ccc(-n2c(=O)c3ccncc3n(C)c2=O)n2nccc12)C(=O)O` [Example 180]: the concentration giving a half-maximal response (EC50) was found to be 0.09 nM.
